Test results: publication PMC3115501 (Archives of biochemistry and biophysics, 2011)
Marks after values point to notes of the source that are not given here.

Key:
[1] = tested on: CYP3A4; conditions: cited from earlier work
[2] = target: T1, CYP3A4 (Homo sapiens, UniProt P08684, S18F); conditions: cited from earlier work
[3] = target: T1, CYP3A4; assay: Redox potential measurements by cyclic voltammetry of purified CYP3A4; conditions: 11 μM 3A4 complexed with 200 μM TST or 100 μM compound 1
[4] = tested on: 3A4; conditions: 3A4 in the presence of testosterone, reduction by NADPH/P450 reductase; cited from earlier work

SMILES: CCC(C)n1ncn(-c2ccc(N3CCN(c4ccc(OCC5COC(Cn6cncn6)(c6ccc(Cl)cc6Cl)O5)cc4)CC3)cc2)c1=O (centres unmarked) [Itraconazole, itraconazole]
- kcat [1]: 0.0045 s⁻¹
- rate of dissociation from the low-spin complex [2]: 0.002 s⁻¹

SMILES: C[C@]12CC[C@H]3[C@@H](CCC4=CC(=O)CC[C@@]43C)[C@@H]1CC[C@@H]2O [Testosterone]
- ks (rate of electron transfer / rate constant for reduction) [3]: 5.6 s⁻¹
- α (electron transfer coefficient) [3]: 0.396
- E^0 (formal potential) ([3]; Equation 1): -189 (3) ^e mV
- ΔEp, ½ ([3]; equation 2): 157 (6) mV
- ks (rate of electron transfer / rate constant for reduction) ([3]; listed as TST): 5.56 s⁻¹
- reduction rate, reported value [4]: 21 s⁻¹
